{
  "source": "patent US12256733B2",
  "about": "“Antimicrobial mixture containing 4-(3-ethoxy-4-hydroxyphenyl)butan-2-one and an acid or silver-based compound, and cosmetic composition containing same” (L'OREAL, priority 2018, dated 2025)",
  "experiment_in_all_cases": "Synergistic antimicrobial activity as MIC, 96-well microplate, optical density at 620 nm",
  "assay_type_in_all_cases": "cell-based",
  "key": {"[1]": {"tested_on": "Enterococcus faecalis ATCC 33186", "from_the_text": "(§1) 1] with: • MIC of A with B: minimum concentration of product A in the combination A+B which makes it possible to obtain an inhibitory effect; • MIC of B with A: minimum concentration of product B in the combination A+B which makes it possible to obtain an inhibitory effect; • MIC of A: minimum inhibitory concentration of product A alone; • MIC of B: minimum inhibitory concentration of product B alone. This formula was described for the first time in the article by F. C. Kull, P. C. Eisman, H. D. Sylwestrowka, and R. L. Mayer, Applied Microbiology 9:538-541, 1961.\nThe microbial strain Enterococcus faecalis ATCC 33186 and a double-concentration BHI (Brain Heart Infusion) broth liquid culture medium were used.\n(§2) A 96-well microplate at an incubation temperature of 32.5° C. is used.\n(§3) The incubation time of the microplate is: • from 24 to 30 h under aerobic conditions for microbial Aspergillus niger ATCC 6275; • from 18 to 24 h under aerobic conditions for Candida albicans ATCC 10231, Pseudomonas aeruginosa ATCC 9027 and Staphylococcus aureus ATCC 6538; • from 24 to 48 h under aerobic conditions for Enterococcus faecalis ATCC 33186. Tests\n(§4) A 10% (weight/volume) stock solution was prepared by mixing 1 g of compound in 9 ml of aqueous 1‰ agar solution. Successive dilutions were made with the 1‰ agar solution.\n(§5) 50 μl of each of the daughter solutions obtained containing compound A or B are added to the microplate wells. 100 μl of Sabouraud liquid nutrient broth inoculated at double concentration with the Aspergillus niger strain and 50 μl of aqueous 1‰ agar solution are also added thereto.\n(§6) 50 μl of each of the daughter solutions obtained containing compound A and 50 μl of each of the daughter solutions obtained containing compound B are added to the microplate wells. 100 μl of Sabouraud liquid nutrient broth inoculated at double concentration with the strain Aspergillus niger are also added thereto.\n(§7) A positive microbial growth control was also prepared. The positive microbial growth control corresponds to a mixture of 100 μl of aqueous 1‰ agar solution with 100 μl of Sabouraud liquid nutrient broth inoculated at double concentration with the strain Aspergillus niger in the absence of compounds A and B.\n(§8) An absorbance control was performed in parallel on compounds A and B alone. This control corresponds to 100 μl of double concentration sterile Sabouraud liquid nutrient broth+100 μl of double concentration compound A or B.\n(§9) In the three cases (absorbance control, growth control and test), the final volume present in each of the microplate wells is 200 μl.\n(§10) The test as described above (tests, absorbance control and growth control) was performed again to test the combination A+B on the following strains Enterococcus faecalis, Staphylococcus aureus, Pseudomonas aeruginosa, Candida albicans, where appropriate."}, "[2]": {"tested_on": "Aspergillus niger ATCC 6275", "from_the_text": "as §1\nThe microbial strain Aspergillus niger ATCC 6275, and a double-concentration Sabouraud broth liquid culture medium supplemented with polyoxyethylenated (20 OE) sorbitan monopalmitate (Tween 40 from Croda) and Phytagel© BioReagent were used (i.e. a mixture of 5 g of Phytagel+0.6 g of Tween 40+60 g of Sabouraud broth).\nas §2, §3, §4, §5, §6, §7, §8, §9\n(§11) In the two cases (test and control), the inoculum represents the concentration of the Aspergillus niger strain present in the final volume of the wells (200 μl) and is between 2 and 6×10^5 cfu/ml of Aspergillus niger."}, "[3]": {"tested_on": "Staphylococcus aureus ATCC 6538", "from_the_text": "as §1\n(§12) When the FIC index value is less than or equal to 1, it is considered that the combination of test compounds has a synergistic effect.\nThe microbial strain Staphylococcus aureus ATCC 6538 and a double-concentration nutrient broth liquid culture medium were used.\nas §2, §3, §4, §5, §6, §7, §8, §9, §11, §10\nThe following results were obtained with the compound B1=trisodium salt of ethylenediaminedisuccinic acid (as an aqueous solution at 30% by weight): sold under the name Natrlquest E30 by the company Innospec Active Chemicals."}, "[4]": {"tested_on": "Candida albicans ATCC 10231", "from_the_text": "as §1, §12\nThe microbial strain Candida albicans ATCC 10231, and a double-concentration Sabouraud broth liquid culture medium were used (i.e. a mixture of 5 g of Phytagel+0.6 g Tween 40+60 g of Sabouraud broth).\nas §2, §3, §4, §5, §6, §7, §8, §9, §10"}, "[5]": {"conditions": "first concentration with growth <= 25%"}, "[6]": {"conditions": "0.0625% A alone (active material weight %)"}},
  "data": [
    {"compound": "O=C([O-])CNCO.[Na+]", "note": "[B4, sodium hydroxymethylglycinate]", "values": [
      {"measurement": "microbial growth percentage", "setting": "[1]; 0.005% B4 alone", "result": 32, "unit": "%"},
      {"measurement": "microbial growth percentage", "setting": "[1]; 0.01% B4 alone", "result": 11, "unit": "%"},
      {"measurement": "% MIC of B4 alone", "setting": "[1]; [5]", "result": 0.1, "unit": "%"}
    ]},
    {"compound": "CCOc1cc(CCC(C)=O)ccc1O", "note": "[A, 4-(3-ethoxy-4-hydroxyphenyl)butan-2-one]", "values": [
      {"measurement": "microbial growth percentage", "setting": "[2]; 0.025% A alone (weight %)", "result": 44, "unit": "%"},
      {"measurement": "microbial growth percentage", "setting": "[2]; 0.05% A alone", "result": 32, "unit": "%"},
      {"measurement": "microbial growth percentage", "setting": "[2]; 0.1% A alone", "result": 13, "unit": "%"},
      {"measurement": "% MIC of A alone", "setting": "[2]; [5]", "result": 0.1, "unit": "%"},
      {"measurement": "microbial growth percentage", "setting": "[3]; [6]", "result": 76, "unit": "%"},
      {"measurement": "microbial growth percentage", "setting": "[3]; 0.125% A alone", "result": 72, "unit": "%"},
      {"measurement": "microbial growth percentage", "setting": "[3]; 0.25% A alone", "result": 71, "unit": "%"},
      {"measurement": "microbial growth percentage", "setting": "[3]; 0.5% A alone", "result": 40, "unit": "%"},
      {"measurement": "microbial growth percentage", "setting": "[3]; 1% A alone", "result": "−23", "unit": "%"},
      {"measurement": "% MIC of A alone", "setting": "[3]; [5]", "result": 1, "unit": "%"},
      {"measurement": "microbial growth percentage", "setting": "[1]; [6]", "result": 31, "unit": "%"},
      {"measurement": "microbial growth percentage", "setting": "[1]; 0.125% A alone", "result": 36, "unit": "%"},
      {"measurement": "microbial growth percentage", "setting": "[1]; 0.25% A alone", "result": 39, "unit": "%"},
      {"measurement": "microbial growth percentage", "setting": "[1]; 0.5% A alone", "result": "−9", "unit": "%"},
      {"measurement": "MIC of product alone", "setting": "[1]; [5]", "result": 0.5, "unit": "%"},
      {"measurement": "microbial growth percentage", "setting": "[4]; [6]", "result": 76, "unit": "%"},
      {"measurement": "microbial growth percentage", "setting": "[4]; 0.125% A alone", "result": 64, "unit": "%"},
      {"measurement": "microbial growth percentage", "setting": "[4]; 0.25% A alone", "result": 36, "unit": "%"},
      {"measurement": "microbial growth percentage", "setting": "[4]; 0.5% A alone", "result": 5, "unit": "%"},
      {"measurement": "% MIC of A alone", "setting": "[4]; [5]", "result": 0.5, "unit": "%"}
    ]},
    {"compound": "O=C([O-])C[C@H](NCCN[C@@H](CC(=O)[O-])C(=O)O)C(=O)[O-].[Na+].[Na+].[Na+]", "note": "[B1, trisodium salt of ethylenediaminedisuccinic acid]", "values": [
      {"measurement": "microbial growth percentage", "setting": "[3]; 0.0375% B1 alone", "result": 97, "unit": "%"},
      {"measurement": "microbial growth percentage", "setting": "[3]; 0.075% B1 alone", "result": 80, "unit": "%"},
      {"measurement": "microbial growth percentage", "setting": "[3]; 0.15% B1 alone", "result": 66, "unit": "%"},
      {"measurement": "microbial growth percentage", "setting": "[3]; 0.3% B1 alone", "result": 37, "unit": "%"},
      {"measurement": "microbial growth percentage", "setting": "[3]; 0.6% B1 alone", "result": 1, "unit": "%"},
      {"measurement": "% MIC of B1 alone", "setting": "[3]; [5]", "result": 0.6, "unit": "%"}
    ]},
    {"compound": "silver citrate hydrate [B3]", "values": [
      {"measurement": "microbial growth percentage", "setting": "[2]; 0.025% B3 alone", "result": 47, "unit": "%"},
      {"measurement": "microbial growth percentage", "setting": "[2]; 0.05% B3 alone", "result": 40, "unit": "%"},
      {"measurement": "microbial growth percentage", "setting": "[2]; 0.1% B3 alone", "result": 9, "unit": "%"},
      {"measurement": "% MIC of B3 alone", "setting": "[2]; [5]", "result": 0.1, "unit": "%"}
    ]},
    {"compound": "CCCCCC1C(O)CCC1CC(=O)[O-].[Na+]", "note": "(stereo not drawn) [B2, sodium salt of 3-hydroxy-2-pentylcyclopentaneacetic acid]", "values": [
      {"measurement": "microbial growth percentage", "setting": "[4]; 0.34% B2 alone", "result": 43, "unit": "%"},
      {"measurement": "microbial growth percentage", "setting": "[4]; 0.68% B2 alone", "result": 6, "unit": "%"},
      {"measurement": "% MIC of B2 alone", "setting": "[4]; [5]", "result": 0.68, "unit": "%"}
    ]}
  ]
}
